Patent US12209102B2, “Heterocyclic compounds and uses thereof” (Kumquat Biosciences Inc., priority 2022, dated 2025)

Assays:
Type in all cases: biochemical
[1] = target: T1, K-Ras G12D (Homo sapiens, UniProt P01116, G12D); assay: HTRF resonance energy transfer assay, K-Ras G12D / SOS1 interaction; details: HTRF assay of Example 5; read-out: IC50 against K-Ras G12D
T1 construct: made in house; host or cells: E. coli BL21 (DE3)
From the text: (§1) This assay can be also used to assess a selective inhibition or reduction of signaling output of a mutant Ras protein relative to a wildtype, or relative to a different mutant Ras protein. For example, the equilibrium interaction of wildtype Kras or K-Ras mutant (e.g., wildtype or a mutant thereof) with SOS1 (e.g., hSOS1) can be assessed as a proxy or an indication for a subject compound's ability to bind and inhibit Ras protein. HTRF assay detects from (i) a fluorescence resonance energy transfer (FRET) donor (e.g., antiGST-Europium) that is bound to GST-tagged K-Ras mutant to (ii) a FRET acceptor (e.g., anti-6His-XL665) bound to a His-tagged hSOS1.
(§2) The assay buffer can contain˜5 mM HEPES pH 7.4, ˜150 mM NaCl, ˜ 1 mM DTT, 0.05% BSA and 0.0025%(v/v) Igepal. A Ras working solution is prepared in an assay buffer containing typically a suitable amount of the protein construct (e.g., GST-tagged K-Ras mutant) and the FRET donor (e.g., antiGST-Eu(K) from Cisbio, France). A SOS1 working solution is prepared in an assay buffer containing suitable amount of the protein construct (e.g., His-hSOS1) and the FRET acceptor (e.g., anti-6His-XL665 from Cisbio, France). A suitable amount of the protein construct will depend on the range of activity or range of IC50 values being detected or under investigation. For detecting IC50 within a range of 500 nM, the protein constructs of the same range of molarity can be utilized.
(§3) A fixed volume of DMSO with or without test compound is transferred into a 384-well plate. Ras working solution is added to all wells of the test plate. SOS1 working solution is added to all wells except for those that are subsequently filled the inhibitor control solution. Upon incubation for about 10 minutes or longer, the fluorescence is measured with a M1000Pro plate reader (Tecan) using HTRF detection (excitation 337 nm, emission 1: 620 nm, emission 2: 665 nm). Compounds are tested in duplicates at different concentrations (for example, 10 μM, 2.5 μM, 0.63 μM, 0.16 μM, 0.04 μM, 0.01 μM test compound). The ratiometric data (i.e., emission 2 divided by emission 1) is used to calculate IC50 values against Ras using GraphPad Prism (GraphPad software). Following this general procedure, samples were tested with or without a subject compound disclosed herein including compounds exemplified in Table 1 to assess their abilities to inhibit a K-Ras mutant relative to another mutant or WT. Signaling output measured in terms of IC50 values can be obtained, a ratio of IC50 against one mutant relative to another mutant can be calculated. For instance, a selective reduction of K-Ras G12D signaling output can be evidenced by a ratio greater than one. In particular, a selective reduction of K-Ras G12D signaling relative to K-Ras WT signaling is evidenced as the ratio of IC50 (against K-Ras WT) to IC50 (against K-Ras G12D) is greater than 1.

[2] = target: T2, K-Ras G12S (Homo sapiens, UniProt P01116, G12S); assay: HTRF resonance energy transfer assay, K-Ras G12S / SOS1 interaction; details: HTRF assay of Example 5; read-out: IC50 against K-Ras G12S
T2 construct: made in house; host or cells: E. coli BL21 (DE3)
From the text: as §1, §2, §3

[3] = target: T3, K-Ras G12V (Homo sapiens, UniProt P01116, G12V); assay: HTRF resonance energy transfer assay, K-Ras G12V / SOS1 interaction; details: HTRF assay of Example 5; read-out: IC50 against K-Ras G12V
T3 construct: made in house; host or cells: E. coli BL21 (DE3)
From the text: as §1, §2, §3

[4] = target: T4, K-Ras WT (Homo sapiens, UniProt P01116); assay: HTRF resonance energy transfer assay, K-Ras WT / SOS1 interaction; details: HTRF assay of Example 5; read-out: IC50 against K-Ras WT
T4 construct: made in house; host or cells: E. coli BL21 (DE3)
From the text: as §1, §2, §3

T4 sequence (P01116 1-188 isoform P01116-2): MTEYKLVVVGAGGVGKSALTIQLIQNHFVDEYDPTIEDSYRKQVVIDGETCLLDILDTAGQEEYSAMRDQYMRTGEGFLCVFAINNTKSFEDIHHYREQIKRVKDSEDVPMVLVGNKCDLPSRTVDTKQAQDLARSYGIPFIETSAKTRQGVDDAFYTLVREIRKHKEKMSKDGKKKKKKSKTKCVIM
T2 sequence (P01116 1-188 isoform P01116-2 G12S): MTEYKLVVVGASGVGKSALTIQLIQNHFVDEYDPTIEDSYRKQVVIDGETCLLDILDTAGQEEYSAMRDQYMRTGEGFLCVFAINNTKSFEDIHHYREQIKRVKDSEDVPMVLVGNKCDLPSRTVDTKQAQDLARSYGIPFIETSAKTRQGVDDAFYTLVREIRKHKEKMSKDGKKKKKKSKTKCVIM
T1 sequence (P01116 1-188 isoform P01116-2 G12D): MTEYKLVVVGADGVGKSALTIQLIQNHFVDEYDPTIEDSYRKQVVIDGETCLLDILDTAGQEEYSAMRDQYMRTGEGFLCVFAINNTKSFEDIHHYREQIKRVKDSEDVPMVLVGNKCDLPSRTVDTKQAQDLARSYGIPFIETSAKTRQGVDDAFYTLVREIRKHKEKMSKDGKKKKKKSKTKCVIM
T3 sequence (P01116 1-188 isoform P01116-2 G12V): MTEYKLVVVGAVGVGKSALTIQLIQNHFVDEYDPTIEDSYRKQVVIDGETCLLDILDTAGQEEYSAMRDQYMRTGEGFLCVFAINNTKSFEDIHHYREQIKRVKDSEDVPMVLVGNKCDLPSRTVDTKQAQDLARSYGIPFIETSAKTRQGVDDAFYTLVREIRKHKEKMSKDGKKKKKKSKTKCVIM

Structure (SMILES) | IC50 [1] [nM] | IC50 [2] [nM] | IC50 [3] [nM] | IC50 [4] [nM]
C=C(C(F)F)[C@H]1COc2c(Cl)c(-c3ccc(F)c4sc(N)c(C#N)c34)c(F)c3nc(OC[C@@]45CCCN4C[C@H](F)C5)nc(c23)N1CC(F)F (single isomer, unassigned) [Compound 629] | < 100 | < 100 | < 100 | < 100
N#Cc1c(N)sc2c(F)ccc(-c3c(Cl)c4c5c(nc(OC[C@@]67CCCN6C[C@H](F)C7)nc5c3F)N(CC(F)F)[C@@H](c3cnco3)CO4)c12 (single isomer, unassigned) [Compound 763] | < 100 | < 100 | < 100 | < 100
C=C[C@H]1COc2c(Cl)c(-c3ccc(F)c4sc(N)c(C#N)c34)c(F)c3nc(OC[C@@]45CCCN4C[C@H](F)C5)nc(c23)N1CCC(F)F (single isomer, unassigned) [Compound 906] | < 100 | < 100 | < 100 | < 100
N#Cc1c(N)sc2c(F)ccc(-c3c(Cl)c4c5c(nc(OC[C@@]67CCCN6C[C@H](F)C7)nc5c3F)N(C3CCOC3)[C@@H](C(F)F)CO4)c12 (stereo partly drawn) [Compound 620, 2-amino-4-((5R)-8-chloro-5-(difluoromethyl)-10-fluoro-2-(((2R,7aS)-2-fluorotetrahydro-1H-pyrrolizin-7a(5H)-yl)methoxy)-4-(tetrahydrofuran-3-yl)-5,6-dihydro-4H-[1,4]oxazepino[5,6,7-de]quinazolin-9-yl)-7-fluorobenzo[b]thiophene-3-carbonitrile] | < 100 | – | – | < 100
N#Cc1c(N)sc2c(F)ccc(-c3c(Cl)c4c5c(nc(OC[C@@]67CCCN6C[C@H](F)C7)nc5c3F)N(CC(F)F)[C@@H](C3CCC3)CO4)c12 [Compound 692, 2-amino-4-((S)-8-chloro-5-cyclobutyl-4-(2,2-difluoroethyl)-10-fluoro-2-(((2R,7aS)-2-fluorotetrahydro-1H-pyrrolizin-7a(5H)-yl)methoxy)-5,6-dihydro-4H-[1,4]oxazepino[5,6,7-de]quinazolin-9-yl)-7-fluorobenzo[b]thiophene-3-carbonitrile] | < 100 | – | < 100 | < 100
C[C@H]1COc2c(Cl)c(-c3ccc(F)c4sc(N)c(C#N)c34)c(F)c3nc(OC[C@@]45CCCN4C[C@H](F)C5)nc(c23)N1CC(F)F [Compound 783, 2-amino-4-((5S)-8-chloro-4-(2,2-difluoroethyl)-10-fluoro-2-(((2R,7aS)-2-fluorotetrahydro-1H-pyrrolizin-7a(5H)-yl)methoxy)-5-methyl-5,6-dihydro-4H-[1,4]oxazepino[5,6,7-de]quinazolin-9-yl)-7-fluorobenzo[b]thiophene-3-carbonitrile] | < 100 | – | – | –
C[C@H]1CN(C2CCN(C(=O)C(F)F)CC2)c2nc(OC[C@@]34CCCN3C[C@H](F)C4)nc3c(F)c(-c4ccc(F)c5sc(N)c(C#N)c45)c(Cl)c(c23)O1 [Compound 822, 2-amino-4-((6S)-8-chloro-4-(1-(2,2-difluoroacetyl)piperidin-4-yl)-10-fluoro-2-(((2R,7aS)-2-fluorotetrahydro-1H-pyrrolizin-7a(5H)-yl)methoxy)-6-methyl-5,6-dihydro-4H-[1,4]oxazepino[5,6,7-de]quinazolin-9-yl)-7-fluorobenzo[b]thiophene-3-carbonitrile] | < 100 | < 100 | – | < 100
CS(=O)(=O)NCC1COc2c(Cl)c(-c3ccc(F)c4sc(N)c(C#N)c34)c(F)c3nc(OC[C@@]45CCCN4C[C@H](F)C5)nc(c23)N1CC(F)F (stereo partly drawn) [Compound 867, N-((9-(2-amino-3-cyano-7-fluorobenzo[b]thiophen-4-yl)-8-chloro-4-(2,2-difluoroethyl)-10-fluoro-2-(((2R,7aS)-2-fluorotetrahydro-1H-pyrrolizin-7a(5H)-yl)methoxy)-5,6-dihydro-4H-[1,4]oxazepino[5,6,7-de]quinazolin-5-yl)methyl)methanesulfonamide] | < 100 | < 100 | – | < 100
C[C@H]1CN(CC2(N(C)C)CCC2)c2nc(OC[C@@]34CCCN3C[C@H](F)C4)nc3c(F)c(-c4ccc(F)c5sc(N)c(C#N)c45)c(Cl)c(c23)O1 [Compound 910, 2-amino-4-((6S)-8-chloro-4-((1-(dimethylamino)cyclobutyl)methyl)-10-fluoro-2-(((2R,7aS)-2-fluorotetrahydro-1H-pyrrolizin-7a(5H)-yl)methoxy)-6-methyl-5,6-dihydro-4H-[1,4]oxazepino[5,6,7-de]quinazolin-9-yl)-7-fluorobenzo[b]thiophene-3-carbonitrile] | < 100 | – | – | < 100
N#Cc1c(N)sc2c(F)ccc(-c3c(Cl)c4c5c(nc(OC[C@@]67CCCN6C[C@H](F)C7)nc5c3F)N(CC3(C(F)(F)F)CC3)CCO4)c12 [Compound 953, 2-amino-4-(8-chloro-10-fluoro-2-(((2R,7aS)-2-fluorotetrahydro-1H-pyrrolizin-7a(5H)-yl)methoxy)-4-((1-(trifluoromethyl)cyclopropyl)methyl)-5,6-dihydro-4H-[1,4]oxazepino[5,6,7-de]quinazolin-9-yl)-7-fluorobenzo[b]thiophene-3-carbonitrile] | < 100 | < 100 | – | < 100
N#Cc1c(N)sc2c(F)ccc(-c3c(Cl)c4c5c(nc(OC[C@@]67CCCN6C[C@H](F)C7)nc5c3F)N(CC(F)F)C(C3CCNC3)CO4)c12 (stereo partly drawn) [Compound 1034, 2-amino-4-(8-chloro-4-(2,2-difluoroethyl)-10-fluoro-2-(((2R,7aS)-2-fluorotetrahydro-1H-pyrrolizin-7a(5H)-yl)methoxy)-5-(pyrrolidin-3-yl)-5,6-dihydro-4H-[1,4]oxazepino[5,6,7-de]quinazolin-9-yl)-7-fluorobenzo[b]thiophene-3-carbonitrile] | < 100 | < 100 | – | < 100
C[C@H](Oc1nc2c3c(c(Cl)c(-c4ccc(F)c5sc(N)c(C#N)c45)c(F)c3n1)OCCN2C1CCCOCC1)[C@@H]1CCCN1C (stereo partly drawn) [Compound 1121, 2-amino-4-(8-chloro-10-fluoro-2-((S)-1-((S)-1-methylpyrrolidin-2-yl)ethoxy)-4-(oxepan-4-yl)-5,6-dihydro-4H-[1,4]oxazepino[5,6,7-de]quinazolin-9-yl)-7-fluorobenzo[b]thiophene-3-carbonitrile] | – | < 100 | < 100 | < 100
N#Cc1c(N)sc2c(F)ccc(-c3c(Cl)c4c5c(nc(OC[C@@]67CCCN6C[C@H](F)C7)nc5c3F)N(C3CCOC3)[C@@H](C3(C#N)CC3)CO4)c12 (stereo partly drawn) [Compound 1130, 2-amino-4-((5S)-8-chloro-5-(1-cyanocyclopropyl)-10-fluoro-2-(((2R,7aS)-2-fluorotetrahydro-1H-pyrrolizin-7a(5H)-yl)methoxy)-4-(tetrahydrofuran-3-yl)-5,6-dihydro-4H-[1,4]oxazepino[5,6,7-de]quinazolin-9-yl)-7-fluorobenzo[b]thiophene-3-carbonitrile] | – | < 100 | < 100 | < 100
CN1c2nc(OC[C@@]34CCCN3C[C@H](F)C4)nc3c(F)c(-c4ccc(F)c5sc(N)c(C#N)c45)c(Cl)c(c23)OCC[C@H]1C1(F)CC1 [Compound 1221, 2-amino-4-((5S)-9-chloro-11-fluoro-5-(1-fluorocyclopropyl)-2-(((2R,7aS)-2-fluorotetrahydro-1H-pyrrolizin-7a(5H)-yl)methoxy)-4-methyl-4,5,6,7-tetrahydro-[1,5]oxazocino[4,3,2-de]quinazolin-10-yl)-7-fluorobenzo[b]thiophene-3-carbonitrile] | – | < 100 | < 100 | < 100
